Test results taken from ChEMBL document CHEMBL1142186, “Multistep resistance selection and postantibiotic-effect studies of the antipneumococcal activity of LBM415 compared to other agents” (2007).
Values after ≈ are worked out from the molar mass of the structure shown.

Assays:
Assay type in all cases: functional
Streptococcus pneumoniae [1] = assay: Antibacterial activity against azithromycin resistance selected Streptococcus pneumoniae 1077 with 23S rRNA A2058G mutation after 10 antibiotic-free subcultures by macrodilution method
Streptococcus pneumoniae [2] = assay: Antibacterial activity against moxifloxacin resistance selected Streptococcus pneumoniae 1076 with ParC S79Y mutation after 10 antibiotic-free subcultures by macrodilution method
Streptococcus pneumoniae [3] = assay: Antibacterial activity against levofloxacin resistance selected Streptococcus pneumoniae 3009 with GyrA S81Y and ParC S79Y mutation after 10 antibiotic-free subcultures by macrodilution method
Streptococcus pneumoniae [4] = assay: Antibacterial activity against azithromycin resistance selected Streptococcus pneumoniae 2527 after 10 antibiotic-free subcultures by macrodilution method
Streptococcus pneumoniae [5] = assay: Antibacterial activity against moxifloxacin resistance selected Streptococcus pneumoniae 3676 with GyrA E85G, GyrB S478I and ParC S79Y mutation after 10 antibiotic-free subcultures by macrodilution method
Streptococcus pneumoniae [6] = assay: Antibacterial activity against gatifloxacin resistance selected Streptococcus pneumoniae 1076 with ParC S79Y mutation after 10 antibiotic-free subcultures by macrodilution method
Streptococcus pneumoniae [7] = assay: Antibacterial activity against clarithromycin resistance selected Streptococcus pneumoniae 3676 after 10 antibiotic-free subcultures by macrodilution method
Streptococcus pneumoniae [8] = assay: Antibacterial activity against azithromycin resistance selected Streptococcus pneumoniae 3243 with L22 insertion 93SFRPRA94 mutation after 10 antibiotic-free subcultures by macrodilution method
Streptococcus pneumoniae [9] = assay: Antibacterial activity against moxifloxacin resistance selected Streptococcus pneumoniae 3665 with GyrA S81Y mutation after 10 antibiotic-free subcultures by macrodilution method
Streptococcus pneumoniae [10] = assay: Antibacterial activity against moxifloxacin resistance selected Streptococcus pneumoniae 24 with GyrA S81Y, GyrB P413S and ParC S79F mutation after 10 antibiotic-free subcultures by macrodilution method
Streptococcus pneumoniae [11] = assay: Antibacterial activity against clarithromycin resistance selected Streptococcus pneumoniae 3009 after 10 antibiotic-free subcultures by macrodilution method
Streptococcus pneumoniae [12] = assay: Antibacterial activity against clarithromycin resistance selected Streptococcus pneumoniae 3665 after 10 antibiotic-free subcultures by macrodilution method
Streptococcus pneumoniae [13] = assay: Antibacterial activity against levofloxacin resistance selected Streptococcus pneumoniae 19 with GyrA S81Y and ParC D83Y mutation after 10 antibiotic-free subcultures by macrodilution method
Streptococcus pneumoniae [14] = assay: Antibacterial activity against clarithromycin resistance selected Streptococcus pneumoniae 3243 with 23S rRNA A2059T mutation after 10 antibiotic-free subcultures by macrodilution method
Streptococcus pneumoniae [15] = assay: Antibacterial activity against moxifloxacin resistance selected Streptococcus pneumoniae 3243 after 10 antibiotic-free subcultures by macrodilution method
Streptococcus pneumoniae [16] = assay: Antibacterial activity against gatifloxacin resistance selected Streptococcus pneumoniae 3009 after 10 antibiotic-free subcultures by macrodilution method
Streptococcus pneumoniae [17] = assay: Antibacterial activity against moxifloxacin resistance selected Streptococcus pneumoniae 19 with GyrA S81F mutation after 10 antibiotic-free subcultures by macrodilution method
Streptococcus pneumoniae [18] = assay: Antibacterial activity against gatifloxacin resistance selected Streptococcus pneumoniae 37 with GyrA S81Y, GyrB E474K and ParC S79Y mutation after 10 antibiotic-free subcultures by macrodilution method
Streptococcus pneumoniae [19] = assay: Antibacterial activity against Streptococcus pneumoniae assessed as period of suppression of bacterial growth
Streptococcus pneumoniae [20] = assay: Antibacterial activity against moxifloxacin resistance selected Streptococcus pneumoniae 3009 with GyrA S81F and ParC D83N mutation after 10 antibiotic-free subcultures by macrodilution method
Streptococcus pneumoniae [21] = assay: Antibacterial activity against Streptococcus pneumoniae 3413 by macrodilution method
Streptococcus pneumoniae [22] = assay: Antibacterial activity against Streptococcus pneumoniae 24 by macrodilution method
Streptococcus pneumoniae [23] = assay: Antibacterial activity against Streptococcus pneumoniae 3665 by macrodilution method
Streptococcus pneumoniae [24] = assay: Antibacterial activity against […] resistance selected Streptococcus pneumoniae 3009 with PDF G69V mutation after 10 antibiotic-free subcultures by macrodilution method
Streptococcus pneumoniae [25] = assay: Antibacterial activity against […] resistance selected Streptococcus pneumoniae 2527 after 10 antibiotic-free subcultures by macrodilution method
Streptococcus pneumoniae [26] = assay: Antibacterial activity against Streptococcus pneumoniae 3009 by macrodilution method
Streptococcus pneumoniae [27] = assay: Antibacterial activity against Streptococcus pneumoniae 37 by macrodilution method
Streptococcus pneumoniae [28] = assay: Antibacterial activity against […] resistance selected Streptococcus pneumoniae 24 with PDF G139F mutation after 27 passages by macrodilution method
Streptococcus pneumoniae [29] = assay: Antibacterial activity against […] resistance selected Streptococcus pneumoniae 3676 with PDF R135C mutation after 20 passages by macrodilution method
Streptococcus pneumoniae [30] = assay: Antibacterial activity against […] resistance selected Streptococcus pneumoniae 1077 with PDF D176N mutation after 10 antibiotic-free subcultures by macrodilution method
Streptococcus pneumoniae [31] = assay: Antibacterial activity against […] resistance selected Streptococcus pneumoniae 3413 after 10 antibiotic-free subcultures by macrodilution method
Streptococcus pneumoniae [32] = assay: Antibacterial activity against […] resistance selected Streptococcus pneumoniae 3243 with PDF G69C, Q172H mutation after 20 passages by macrodilution method
Streptococcus pneumoniae [33] = assay: Antibacterial activity against Streptococcus pneumoniae 3676 by macrodilution method
Streptococcus pneumoniae [34] = assay: Antibacterial activity against […] resistance selected Streptococcus pneumoniae 1077 with PDF D176N mutation after 24 passages by macrodilution method
Streptococcus pneumoniae [35] = assay: Antibacterial activity against […] resistance selected Streptococcus pneumoniae 37 with PDF G69R, P76R mutation after 50 passages by macrodilution method
Streptococcus pneumoniae [36] = assay: Antibacterial activity against […] resistance selected Streptococcus pneumoniae 3676 with PDF R135C mutation after 10 antibiotic-free subcultures by macrodilution method
Streptococcus pneumoniae [37] = assay: Antibacterial activity against […] resistance selected Streptococcus pneumoniae 19 with after 10 antibiotic-free subcultures by macrodilution method
Streptococcus pneumoniae [38] = assay: Antibacterial activity against Streptococcus pneumoniae 2527 by macrodilution method
Streptococcus pneumoniae [39] = assay: Antibacterial activity against […] resistance selected Streptococcus pneumoniae 3665 with after 27 passages by macrodilution method
Streptococcus pneumoniae [40] = assay: Antibacterial activity against […] resistance selected Streptococcus pneumoniae 1076 with PDF D176N mutation after 39 passages by macrodilution method
Streptococcus pneumoniae [41] = assay: Antibacterial activity against […] resistance selected Streptococcus pneumoniae 3665 with after 10 antibiotic-free subcultures by macrodilution method
Streptococcus pneumoniae [42] = assay: Antibacterial activity against Streptococcus pneumoniae 19 by macrodilution method
Streptococcus pneumoniae [43] = assay: Antibacterial activity against Streptococcus pneumoniae 1076 by macrodilution method
Streptococcus pneumoniae [44] = assay: Antibacterial activity against Streptococcus pneumoniae 1077 by macrodilution method
Streptococcus pneumoniae [45] = assay: Antibacterial activity against Streptococcus pneumoniae 3243 by macrodilution method
Streptococcus pneumoniae [46] = assay: Antibacterial activity against […] resistance selected Streptococcus pneumoniae 1076 with PDF D176N mutation after 10 antibiotic-free subcultures by macrodilution method
Streptococcus pneumoniae [47] = assay: Antibacterial activity against […] resistance selected Streptococcus pneumoniae 3009 with PDF G69V mutation after 14 passages by macrodilution method
Streptococcus pneumoniae [48] = assay: Antibacterial activity against […] resistance selected Streptococcus pneumoniae 19 with after 14 passages by macrodilution method
Streptococcus pneumoniae [49] = assay: Antibacterial activity against […] resistance selected Streptococcus pneumoniae 3413 after 14 passages by macrodilution method
Streptococcus pneumoniae [50] = assay: Antibacterial activity against […] resistance selected Streptococcus pneumoniae 24 with PDF G139F mutation after 10 antibiotic-free subcultures by macrodilution method
Streptococcus pneumoniae [51] = assay: Antibacterial activity against […] resistance selected Streptococcus pneumoniae 37 with PDF G69R, P76R mutation after 10 antibiotic-free subcultures by macrodilution method
Streptococcus pneumoniae [52] = assay: Antibacterial activity against […] resistance selected Streptococcus pneumoniae 2527 after 27 passages by macrodilution method
Streptococcus pneumoniae [53] = assay: Antibacterial activity against […] resistance selected Streptococcus pneumoniae 3243 with PDF G69C, Q172H mutation after 10 antibiotic-free subcultures by macrodilution method

Compound: C[C@@H](O)[C@H]1C(=O)N2C(C(=O)O)=C(SCCNC=N)C[C@H]12 [IMIPENEM ANHYDROUS]
- MIC (Streptococcus pneumoniae [1]): 0.008 µg/mL (≈ 0.0267 µM)
- MIC (Streptococcus pneumoniae [2]): 0.008 µg/mL (≈ 0.0267 µM)
- MIC (Streptococcus pneumoniae [3]): ≤ 0.004 µg/mL
- MIC (Streptococcus pneumoniae [4]): 0.5 µg/mL (≈ 1.67 µM)
- MIC (Streptococcus pneumoniae [5]): 0.03 µg/mL (≈ 0.1 µM)
- MIC (Streptococcus pneumoniae [6]): 0.008 µg/mL (≈ 0.0267 µM)
- MIC (Streptococcus pneumoniae [7]): 0.016 µg/mL (≈ 0.0534 µM)
- MIC (Streptococcus pneumoniae [8]): 0.03 µg/mL (≈ 0.1 µM)
- MIC (Streptococcus pneumoniae [9]): 0.03 µg/mL (≈ 0.1 µM)
- MIC (Streptococcus pneumoniae [10]): 0.5 µg/mL (≈ 1.67 µM)
- MIC (Streptococcus pneumoniae [11]): ≤ 0.004 µg/mL
- MIC (Streptococcus pneumoniae [12]): 0.03 µg/mL (≈ 0.1 µM)
- MIC (Streptococcus pneumoniae [13]): 0.5 µg/mL (≈ 1.67 µM)
- MIC (Streptococcus pneumoniae [14]): 0.03 µg/mL (≈ 0.1 µM)
- MIC (Streptococcus pneumoniae [15]): 0.004 µg/mL (≈ 0.0134 µM)
- MIC (Streptococcus pneumoniae [16]): 0.008 µg/mL (≈ 0.0267 µM)
- MIC (Streptococcus pneumoniae [17]): 0.5 µg/mL (≈ 1.67 µM)
- MIC (Streptococcus pneumoniae [18]): 0.5 µg/mL (≈ 1.67 µM)
- Post Antibiotic Effe (Streptococcus pneumoniae [19]): 1.7 h
- MIC (Streptococcus pneumoniae [20]): 0.008 µg/mL (≈ 0.0267 µM)

Compound: C[C@H]1COc2c(N3CCN(C)CC3)c(F)cc3c(=O)c(C(=O)O)cn1c23.C[C@H]1COc2c(N3CCN(C)CC3)c(F)cc3c(=O)c(C(=O)O)cn1c23.O [LEVOFLOXACIN]
- MIC (Streptococcus pneumoniae [18]): 64 µg/mL
- Post Antibiotic Effe (Streptococcus pneumoniae [19]): 1.3 h

Compound: CCCC[C@H](CN(O)C=O)C(=O)N1CCC[C@H]1C(=O)Nc1ccc(F)c[n+]1[O-]
- MIC (Streptococcus pneumoniae [21]): 0.25 µg/mL (≈ 0.631 µM)
- MIC (Streptococcus pneumoniae [22]): 0.5 µg/mL (≈ 1.26 µM)
- MIC (Streptococcus pneumoniae [1]): 0.25 µg/mL (≈ 0.631 µM)
- MIC (Streptococcus pneumoniae [23]): 0.25 µg/mL (≈ 0.631 µM)
- MIC (Streptococcus pneumoniae [2]): 0.125 µg/mL (≈ 0.315 µM)
- MIC (Streptococcus pneumoniae [24]): > 16 µg/mL
- MIC (Streptococcus pneumoniae [25]): 0.5 µg/mL (≈ 1.26 µM)
- MIC (Streptococcus pneumoniae [26]): 1 µg/mL (≈ 2.52 µM)
- MIC (Streptococcus pneumoniae [27]): 1 µg/mL (≈ 2.52 µM)
- MIC (Streptococcus pneumoniae [28]): 4 µg/mL (≈ 10.1 µM)
- MIC (Streptococcus pneumoniae [29]): 2 µg/mL (≈ 5.05 µM)
- MIC (Streptococcus pneumoniae [3]): 0.5 µg/mL (≈ 1.26 µM)
- MIC (Streptococcus pneumoniae [4]): 0.5 µg/mL (≈ 1.26 µM)
- MIC (Streptococcus pneumoniae [30]): 4 µg/mL (≈ 10.1 µM)
- MIC (Streptococcus pneumoniae [5]): 0.125 µg/mL (≈ 0.315 µM)
- MIC (Streptococcus pneumoniae [6]): 0.25 µg/mL (≈ 0.631 µM)
- MIC (Streptococcus pneumoniae [7]): 0.125 µg/mL (≈ 0.315 µM)
- MIC (Streptococcus pneumoniae [31]): 1 µg/mL (≈ 2.52 µM)
- MIC (Streptococcus pneumoniae [8]): 0.5 µg/mL (≈ 1.26 µM)
- MIC (Streptococcus pneumoniae [32]): 4 µg/mL (≈ 10.1 µM)
- MIC (Streptococcus pneumoniae [33]): 0.125 µg/mL (≈ 0.315 µM)
- MIC (Streptococcus pneumoniae [9]): 0.5 µg/mL (≈ 1.26 µM)
- MIC (Streptococcus pneumoniae [34]): 8 µg/mL (≈ 20.2 µM)
- MIC (Streptococcus pneumoniae [35]): 16 µg/mL (≈ 40.4 µM)
- MIC (Streptococcus pneumoniae [10]): 0.125 µg/mL (≈ 0.315 µM)
- MIC (Streptococcus pneumoniae [36]): 2 µg/mL (≈ 5.05 µM)
- MIC (Streptococcus pneumoniae [37]): 2 µg/mL (≈ 5.05 µM)
- MIC (Streptococcus pneumoniae [38]): 0.25 µg/mL (≈ 0.631 µM)
- MIC (Streptococcus pneumoniae [39]): 4 µg/mL (≈ 10.1 µM)
- MIC (Streptococcus pneumoniae [11]): 1 µg/mL (≈ 2.52 µM)
- MIC (Streptococcus pneumoniae [40]): 8 µg/mL (≈ 20.2 µM)
- MIC (Streptococcus pneumoniae [12]): 0.25 µg/mL (≈ 0.631 µM)
- MIC (Streptococcus pneumoniae [41]): 1 µg/mL (≈ 2.52 µM)
- MIC (Streptococcus pneumoniae [42]): 0.25 µg/mL (≈ 0.631 µM)
- MIC (Streptococcus pneumoniae [43]): 0.25 µg/mL (≈ 0.631 µM)
- MIC (Streptococcus pneumoniae [13]): 1 µg/mL (≈ 2.52 µM)
- MIC (Streptococcus pneumoniae [14]): 0.5 µg/mL (≈ 1.26 µM)
- MIC (Streptococcus pneumoniae [15]): 0.03 µg/mL (≈ 0.0757 µM)
- MIC (Streptococcus pneumoniae [44]): 0.5 µg/mL (≈ 1.26 µM)
- MIC (Streptococcus pneumoniae [45]): 0.5 µg/mL (≈ 1.26 µM)
- MIC (Streptococcus pneumoniae [46]): 2 µg/mL (≈ 5.05 µM)
- MIC (Streptococcus pneumoniae [47]): > 16 µg/mL
- MIC (Streptococcus pneumoniae [48]): 4 µg/mL (≈ 10.1 µM)
- MIC (Streptococcus pneumoniae [49]): 2 µg/mL (≈ 5.05 µM)
- MIC (Streptococcus pneumoniae [16]): 2 µg/mL (≈ 5.05 µM)
- MIC (Streptococcus pneumoniae [50]): 2 µg/mL (≈ 5.05 µM)
- MIC (Streptococcus pneumoniae [17]): 0.5 µg/mL (≈ 1.26 µM)
- MIC (Streptococcus pneumoniae [51]): 2 µg/mL (≈ 5.05 µM)
- MIC (Streptococcus pneumoniae [18]): 2 µg/mL (≈ 5.05 µM)
- MIC (Streptococcus pneumoniae [52]): 4 µg/mL (≈ 10.1 µM)
- MIC (Streptococcus pneumoniae [53]): 1 µg/mL (≈ 2.52 µM)
- Post Antibiotic Effe (Streptococcus pneumoniae [19]): 1 h
- MIC (Streptococcus pneumoniae [20]): 0.5 µg/mL (≈ 1.26 µM)
